Experimental data from patent publication US20250152605A1, “METHOD AND DRUG FOR TREATING NEURONAL CEROID LIPOFUSCINOSIS” (priority 2021, published 2025).

Assays:
p62 protein = p62 protein blotting with Baf-A1 (autophagic flux) in human neurons; format: cell-based
Protocol: Sample preparation: for adherent cultured cells, exemplified by cells cultured in a six-well cell plate, the cell medium was aspirated and the cells were washed once with dPBS. About 100 μL of RIPA lysate (50 mM Tris-HCl, pH 7.5, 150 mM NaCl, 0.25% Na-deoxycholate, 0.1% NP-40, 0.1% Triton X-100) containing protease inhibitors and phosphatase inhibitors was added to each well. The cell lysate was scraped off completely with a cell scraper and collected into 1.5 mL EP tubes. Lysis was continued for 30 minutes on ice. For animal tissue, the weight of the animal tissue was weighed, and RIPA lysate containing protease inhibitors and phosphatase inhibitors was added with five times the volume of the animal tissue. The tissue was grinded on ice with a tissue grinder until there is no obvious tissue mass, collected into 1.5 mL EP tubes, and placed on ice for further lysis for 30 min. […]

[1] = system: CLN3^Δex7/8 human neural stem cells; assay: qRT-PCR of autophagy-related and lysosomal genes in human neural stem cells; format: cell-based; conditions: 6 hours
Protocol: The cells in the cell-culture dish were collected, extracted using AxyPrep Total RNA Mini Prep Kit or Qiagen AxyPrep Total RNA Mini Prep Kit, and the extracted RNA concentration is measured using Nanodrop; the extracted mRNA was reverse transcribed into cDNA by Transgen's EasyScript® One-Step gDNA Removal and cDNA Synthesis SuperMix and the primers used for reverse transcription were Oligo dT primers; the completion of reverse transcription followed by qRT-PCR reaction through PerfectStart™ Green qPCR SuperMix to detect the expression of the target gene; the qRT-PCR reaction was performed on the Bio-Rad CFX96 Real-Time PCR system; see Table 2 and Table 3 for the 20 μL qRT-PCR reaction system and reaction procedures; data analysis was performed in Prism 7 software using the 2^−ΔΔCt process with GAPDH as internal reference for relative quantification of the expression of the target gene.
The effect of Compound G on the transcription level of the autophagy-related genes and the lysosomal genes was further detected in the induced CLN3^Δex7/8 human neural stem cells and neurons.

Cln3 KO mice = assay: Open field test; format: in vivo, mouse; conditions: 4-5 months old Cln3 KO mice, within 10 minutes
Protocol: Open field tests were conducted on mice using blue boxes measuring 50 cm×50 cm×40 cm, with specific steps as follows: the mice to be tested were kept in single cages for more than 1 week to adapt to the environment; the central 25 cm×25 cm area of the box was divided into a central area. The mice were placed gently in the central area facing away from the experimenter, and the video device was started to record the movement track of the mice within 10 minutes; the boxes were thoroughly wiped twice with 75% ethanol to eliminate the odor of the mouse, and then the next mouse was placed for movement track record within 10 minutes; the movement track of mice was analyzed with the Noldus software, and the analysis indicators included the movement speed and total movement distance of mice. The number of times the mice stood upright on their hind legs within 10 minutes was manually counted by the experimenter.
[…] experiments were conducted on 4-5 months old wild-type mice, Cln3 KO mice, and Compound G-treated Cln3 KO mice. The mouse was gently placed in the mine field, it was allowed to move freely, and the route, distance and speed of its movement within 10 minutes were recorded.

CLN3^Δex7/8 neurons = assay: Mitochondrial autophagy level (mtDNA/nDNA after CCCP and Baf-A1); format: cell-based, human; conditions: CCCP-induced mitochondrial damage
Protocol: The medium in the cell culture plate was aspirated and the cells were digested after washing once with dPBS. After stopping the digestion with cell medium, the supernatant was removed by centrifugation and the cells were resuspended with 200 μL dPBS. DNeasy®) Blood & Tissue Kit was used to extract DNA from cells. Then, referring to the qRT-PCR system and reaction procedure in Tables 2 and 3, the qRT-PCR reaction was performed using the extracted DNA instead of the cDNA. Data analysis was performed in Prism 7 software using the 2^ΔΔCt process with genomic gene b2M as internal reference for relative quantification of the number of mitochondrial sequences MinArc. Primers for determining intracellular mitochondria number were as follows:
Damaged mitochondria within a cell can be eliminated through an autophagic process named mitochondrial autophagy. Functional defects in autophagy affect the elimination of damaged mitochondria, which in turn disrupts mitochondrial homeostasis in neurons. After inducing mitochondrial damage in wild-type and CLN3^Δex7/8 neurons using the mitochondrial uncoupler CCCP, and then inhibiting the elimination of damaged mitochondria by Baf-A1, the increases of intracellular mitochondrial number (mtDNA/nDNA) after Baf-A1 treatment can represent the intracellular mitochondrial autophagy level.

With C/C=C1\C(=O)C[C@H]2[C@@H]3CCC4=CC(=O)CC[C@]4(C)[C@H]3CC[C@]12C [Compound G, (Z)-guggulsterone] the “increases of p62 protein after adding Baf-A1 (autophagic flux)” value (p62 protein; CLN3^Δex7/8 human neurons) was “higher increases of p62 protein”, the “intracellular protein level of p62” value (p62 protein; under the condition of adding Baf-A1) was “still significantly increase” and the “transcription level of the autophagy-related genes or the lysosomal genes” value [1] was “did not significantly increase”. The “distance of the movement in the field” value (Cln3 KO mice) was “improve the distance and the speed of the movement”, the “speed of the movement in the field” value (Cln3 KO mice) was “improve the distance and the speed of the movement” and the “mitochondrial autophagy (increase of mitochondrial number mtDNA/nDNA after Baf-A1)” value (CLN3^Δex7/8 neurons) was “rescue mitochondrial autophagy”.
